The assay has as its system snails. As to the kind of experiment: Insect control performance verification: cabbage leaves fed to snails. The format is in vivo. As to conditions: leaves sprayed with 10 mg/mL suspension; 10 snails per group. The source says: Cabbage leaves each at a size of 5 cm×5 cm were divided into four groups with four cabbage leaves in each group. […] The four groups of leaves were respectively administered to four groups of snails with 10 snails in each group. The consumption rate by the snails for the untreated cabbage leaf group was almost 100%. The consumption rate by the snails for the cabbage leaves simply sprayed with the imidacloprid suspension was about 30%. […] The consumption rate by the snails for the cabbage leaves that were first sprayed with the suspension of the protein product of the present disclosure and then treated with the Vc aqueous solution or the fruit and vegetable detergent was increased to 80%.

As for `O=[N+]([O-])NC1=NCCN1Cc1ccc(Cl)nc1` [imidacloprid], the “consumption rate of cabbage leaves by the snails” value is on record as “about 30%”.

The values are drawn from patent US12317891B2, “Protein product capable of immobilizing target and being cleared as required” (SHAANXI NORMAL UNIVERSITY, priority 2020, dated 2025).
